Laboratory results from ChEMBL document CHEMBL1201862, “PubChem BioAssay data set” (2004).
The source made the active and inactive calls.

Target: T1, Heat shock factor protein 1 (Mus musculus, UniProt P38532)
T1 sequence (P38532 whole entry): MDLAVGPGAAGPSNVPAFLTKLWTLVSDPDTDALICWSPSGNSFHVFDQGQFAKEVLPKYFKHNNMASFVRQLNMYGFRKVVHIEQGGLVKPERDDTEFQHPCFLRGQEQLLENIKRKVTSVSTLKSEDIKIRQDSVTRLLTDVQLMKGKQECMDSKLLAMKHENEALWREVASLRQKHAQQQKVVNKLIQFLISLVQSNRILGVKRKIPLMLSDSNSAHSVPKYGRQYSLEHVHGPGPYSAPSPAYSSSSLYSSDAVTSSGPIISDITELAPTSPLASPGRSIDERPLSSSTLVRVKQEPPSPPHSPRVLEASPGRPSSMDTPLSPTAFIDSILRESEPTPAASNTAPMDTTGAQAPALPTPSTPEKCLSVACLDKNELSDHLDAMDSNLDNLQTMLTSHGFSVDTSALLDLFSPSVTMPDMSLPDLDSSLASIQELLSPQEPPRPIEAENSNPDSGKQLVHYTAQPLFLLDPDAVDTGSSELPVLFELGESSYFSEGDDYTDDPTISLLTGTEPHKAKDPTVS
Assay: HSF1 potentiators in luciferase reporter cells, confirmation, cell-based, NIH3T3, luminescence, dose retest (AID 435004);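 further: stress induced by proteasome inhibitor MG132 added 30 min after compound; luciferase reporter driven by HSF1 response element in NIH3T3 cells; actives raise luminescence as potentiators of the MG132 stress response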
Format: functional
Settings: not given

| EC50 | Compound |
| --- | --- |
| > 260 µM (inactive) | O=C(O)CSc1c(-c2ccccc2)[nH]c2ccccc12 |
| > 260 µM (inactive) | Cc1ccc(CC2S/C(=N\c3ccccc3)N(c3ccccc3)C2=O)cc1 (stereo not given) |
| > 260 µM (inactive) | Cc1ccc(/N=C2\SC(C(=O)NCCc3ccccc3)CC(=O)N2C)cc1C (stereo not given) |

Continued, compound first:

| Compound | EC50 |
| --- | --- |
| COc1ccc(CN(CC2CCC(C(=O)O)CC2)C(S)=Nc2cc(Cl)ccc2OC)cc1 (stereo not given) | > 260 µM (inactive) |
| COc1ccc(S(=O)(=O)n2nc(OC(=O)c3ccccc3Br)cc2N)cc1 | 18.2 µM (active) |
| COc1cc2[nH]c(=S)n(Cc3ccco3)c(=O)c2cc1OC | > 260 µM (inactive) |
| Cc1ccccc1CC(=O)NC1CCCc2ccccc21 (stereo not given) | > 260 µM (inactive) |
| O=C(NC1CCCN(Cc2ccccc2F)C1)c1cccs1 (stereo not given) | > 260 µM (inactive) |
| Cc1ccn2c(C(=O)N/N=C\c3ccccc3[N+](=O)[O-])c(C)nc2c1 | > 260 µM (inactive) |

Target: Cytochrome P450 2C19 (Homo sapiens, UniProt P33261)
Sequence (P33261 whole entry): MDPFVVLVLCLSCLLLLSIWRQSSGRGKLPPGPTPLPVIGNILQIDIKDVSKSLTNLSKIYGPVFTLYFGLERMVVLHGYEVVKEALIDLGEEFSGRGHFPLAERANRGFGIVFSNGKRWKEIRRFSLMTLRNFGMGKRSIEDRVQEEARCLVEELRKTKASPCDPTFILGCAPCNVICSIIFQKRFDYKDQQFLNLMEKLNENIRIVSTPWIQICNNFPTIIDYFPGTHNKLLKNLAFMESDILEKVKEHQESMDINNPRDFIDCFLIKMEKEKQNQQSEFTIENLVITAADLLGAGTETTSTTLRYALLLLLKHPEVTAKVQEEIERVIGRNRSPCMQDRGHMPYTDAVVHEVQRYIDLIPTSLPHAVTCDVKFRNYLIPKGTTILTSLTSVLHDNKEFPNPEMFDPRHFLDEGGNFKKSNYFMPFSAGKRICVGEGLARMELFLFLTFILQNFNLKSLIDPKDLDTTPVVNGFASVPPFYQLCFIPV
Assay: Cytochrome panel assay with activity outcomes. Panel member name: p450-cyp2c19 Compounds with AC50 equal or less than 10 uM are considered active
Format: functional
Settings: read-out: AC50

| AC50 | Compound |
| --- | --- |
| 11.2 µM (inconclusive) | CC(=O)c1cccc(NC(=O)/C(=C\c2ccco2)NC(=O)c2cccs2)c1 |
| 39.8 µM (inconclusive) | CN(C)c1ncc2nc(CCc3ccccc3)c(=O)n(-c3ccccc3)c2n1 |

Target: Cytochrome P450 2D6 (Homo sapiens, UniProt P10635);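 further: CYP2D6 member of a cytochrome P450 panel assay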
Sequence (P10635 whole entry): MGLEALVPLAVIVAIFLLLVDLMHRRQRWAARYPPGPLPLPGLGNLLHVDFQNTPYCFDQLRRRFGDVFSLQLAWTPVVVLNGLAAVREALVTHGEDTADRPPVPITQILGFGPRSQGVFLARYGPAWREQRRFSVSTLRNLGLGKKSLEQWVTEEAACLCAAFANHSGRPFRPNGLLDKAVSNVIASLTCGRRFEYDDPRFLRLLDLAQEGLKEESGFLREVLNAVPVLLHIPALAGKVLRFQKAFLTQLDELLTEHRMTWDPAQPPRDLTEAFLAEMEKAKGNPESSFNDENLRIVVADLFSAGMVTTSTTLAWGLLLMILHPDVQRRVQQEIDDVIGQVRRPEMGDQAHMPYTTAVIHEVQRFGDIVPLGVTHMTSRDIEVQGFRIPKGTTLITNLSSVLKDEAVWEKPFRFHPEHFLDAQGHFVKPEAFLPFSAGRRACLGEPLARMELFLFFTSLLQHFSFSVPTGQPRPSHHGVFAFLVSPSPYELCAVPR
Settings: not given

| AC50 | Compound |
| --- | --- |
| 12.6 µM (inconclusive) | CCCCC#Cc1ccccc1CC(=O)Nc1ccccc1 |
| 1.78 µM (inconclusive) | Cc1ccc(NC(S)=Nc2nc(CC(=O)Nc3ccccc3)cs2)cc1 |
| 31.6 µM (inconclusive) | COC(=O)c1ccc(C23CC2(C(NP(=O)(c2ccccc2)c2ccccc2)c2ccccc2)C3)cc1 (stereo not given) |
| 2.51 µM (inconclusive) | CN(C)c1ncc2nc(CCc3ccccc3)c(=O)n(-c3ccccc3)c2n1 |

The remaining lines, values behind:

| Compound | AC50 |
| --- | --- |
| CC(=O)c1cccc(NC(=O)/C(=C\c2ccco2)NC(=O)c2cccs2)c1 | 14.1 µM (inconclusive) |
| Cc1noc(C)c1-c1nccc(NCc2cccnc2)n1 | 20 µM (inconclusive) |
| Cn1c(C[C@@H](O)c2nc3ccccc3n2C)nc2ccccc21 | 2.51 µM (inconclusive) |
| CC(=O)N1CCC2(CCN(Cc3ccccc3)CC2)CC1 | 15.8 µM (inconclusive) |
| COc1cccc(-c2ccc3ncnc(NC4CC4)c3c2)c1 | 25.1 µM (inconclusive) |
| Cc1cnc(CNc2ncnc3ccc(-c4ccccc4C)cc23)cn1 | 20 µM (inconclusive) |
| COC(=O)/C(=C\C(=O)c1ccccc1)Nc1cccc(C(F)(F)F)c1 | 25.1 µM (inconclusive) |
| CCCCCCCCCCCCCC(=O)O[C@H](CC(=O)[O-])C[N+](C)(C)C | 31.6 µM (inconclusive) |
| CC[N+](CC)(CCNC(=O)C(=O)NCC[N+](CC)(CC)Cc1ccccc1Cl)Cc1ccccc1Cl [AMBENONIUM] | 39.8 µM (inconclusive) |

Target: T2, Cytochrome P450 1A2 (Homo sapiens, UniProt P05177);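 further: PubChem cytochrome P450 panel assay, CYP1A2 panel member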
T2 sequence (P05177 whole entry): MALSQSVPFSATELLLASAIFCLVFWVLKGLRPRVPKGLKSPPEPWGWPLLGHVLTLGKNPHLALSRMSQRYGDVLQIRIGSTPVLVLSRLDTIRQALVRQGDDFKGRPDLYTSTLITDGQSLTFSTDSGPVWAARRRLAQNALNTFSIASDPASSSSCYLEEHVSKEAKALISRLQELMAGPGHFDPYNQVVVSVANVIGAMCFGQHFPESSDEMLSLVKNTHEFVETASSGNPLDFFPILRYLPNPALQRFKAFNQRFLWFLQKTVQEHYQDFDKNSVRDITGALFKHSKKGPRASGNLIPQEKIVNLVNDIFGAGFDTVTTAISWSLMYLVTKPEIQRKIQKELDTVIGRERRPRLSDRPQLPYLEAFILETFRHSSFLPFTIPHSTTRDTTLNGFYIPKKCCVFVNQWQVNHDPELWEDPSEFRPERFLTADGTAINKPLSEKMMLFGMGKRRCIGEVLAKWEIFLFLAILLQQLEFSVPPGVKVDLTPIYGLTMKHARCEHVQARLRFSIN
Settings: not given

| AC50 | Compound |
| --- | --- |
| 14.1 µM (inconclusive) | CC(=O)c1cccc(NC(=O)/C(=C\c2ccco2)NC(=O)c2cccs2)c1 |
